# Key:
# BMAL1 [1] = target: T1, BMAL1 (Homo sapiens, UniProt O00327); experiment: ITC; also crystal structure ([…] Å), SPR (Kd […]), PTS (ΔTm […] °C), CETSA (EC50 […]); type: binding; parameters: PASB domain (338–449 amino acids)
# BMAL1 [2] = target: T1, BMAL1; parameters: PASB domain (residues 338–449); Protein thermal shift (PTS) fragment screen on recombinant human BMAL1(PASB), shift of melting temperature; conditions: dTmB; binder
# T1 sequence (O00327 338-449): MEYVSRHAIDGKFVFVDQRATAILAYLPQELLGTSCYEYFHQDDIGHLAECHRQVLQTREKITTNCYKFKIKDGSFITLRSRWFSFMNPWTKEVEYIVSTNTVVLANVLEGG
SMILES,Kd (BMAL1 [1]) [nM],Bmal1(PASB) dTmB (BMAL1 [2]) [°C]
"CCc1ccc(OCC(F)CO)c2occc12 (racemic) [compound 4, CCM]",1990 ± 380,–
"NCCOCc1ccccc1 [Prestw-Frag-3749, Compound 335]",–,0.05
"c1ccc2c(c1)CCNCC2 [Prestw-Frag-3750, Compound 343]",–,-0.06
"NCC1(c2ccccc2)CC1 [Prestw-Frag-3751, Compound 367]",–,-0.24
"Cc1[nH]cnc1CO [Prestw-Frag-3752, Compound 153]",–,0.29
"c1ncc(C2CCNCC2)[nH]1 [Prestw-Frag-3753, Compound 303]",–,-0.23
"CC(=O)C1CCNCC1 [Prestw-Frag-3756, Compound 333]",–,-0.19
"CC1CCC(=O)O1 (stereo not drawn) [Prestw-Frag-3757, Compound 251]",–,-0.06
"c1ccc(-n2cccn2)cc1 [Prestw-Frag-3759, Compound 239]",–,-0.29

# Source: publication PMC12037410, “Pharmacological targeting of BMAL1 modulates circadian and immune pathways” (Nature Chemical Biology, 2025)
